How the values were obtained:
Type in all cases: physicochemical
[1] = Stability of crystal forms after 4 weeks at 80° C., analyzed by XRPD; details: for Conversion in the solid state on storage: stored for 4 weeks at 80° C.; for Crystal form found by XRPD after storage (stability): 4 weeks at 80° C.
Description: Samples of the compound of formula I in crystal form A, the compound of formula I in crystal form B, a mixture of both crystal forms and an amorphous form of the compound of formula I (obtained by spray drying) are stored for 4 weeks at 80° C. under different conditions and analyzed by X-ray powder diffraction (XRPD).

[2] = Interconversion of crystal forms in the presence of solvent
[3] = Heat of solution at 25° C. in acetone
Description: The heat of solution of samples of crystal forms A and B of the compound of formula I are measured at 25° C. in acetone.

In the case of `COC(=O)[C@@]1(OC(=O)c2sccc2C)[C@H](C)CC2C3C[C@H](F)C4=CC(=O)C=C[C@]4(C)[C@@]3(Cl)[C@@H](O)C[C@@]21C` (stereo partly drawn) [Amorphous form, 3-methylthiophene-2-carboxylic acid (6S,9R,10S,11S, 13S,16R,17R)-9-chloro-6-fluoro-11-hydroxy-17-methoxycarbonyl-10,13,16-trimethyl-3-oxo-6,7,8,9,10,11,12,13,14,15,16,17-dodecahydro-3H-cyclopenta[a]phenanthren-17-yl ester], the “Conversion in the solid state on storage” value ([1]; solid state, listed as amorphous form) is reported as “can also convert into crystal form A”.

In the case of `COC(=O)[C@@]1(OC(=O)c2sccc2C)[C@H](C)CC2C3C[C@H](F)C4=CC(=O)C=C[C@]4(C)[C@@]3(Cl)[C@@H](O)C[C@@]21C` (stereo partly drawn) [Crystal form A, 3-methylthiophene-2-carboxylic acid (6S,9R,10S,11S, 13S,16R,17R)-9-chloro-6-fluoro-11-hydroxy-17-methoxycarbonyl-10,13,16-trimethyl-3-oxo-6,7,8,9,10,11,12,13,14,15,16,17-dodecahydro-3H-cyclopenta[a]phenanthren-17-yl ester], the “Relative thermodynamic stability (from storage test)” value ([1]; solid state, versus crystal form B) is reported as “more thermodynamically stable than crystal form B”, the “Conversion of crystal form in the presence of ethanol” value ([2]; in the presence of ethanol) is reported as “converts to crystal form B” and the Heat of solution ([3]; listed as A) is reported as 29.3 J/g. The “Relative thermodynamic stability (from heat of solution)” value ([3]; versus crystal form B) was “more thermodynamically stable than crystal form B”.

With `COC(=O)[C@@]1(OC(=O)c2sccc2C)[C@H](C)CC2C3C[C@H](F)C4=CC(=O)C=C[C@]4(C)[C@@]3(Cl)[C@@H](O)C[C@@]21C` (stereo partly drawn) [Crystal form B, 3-methylthiophene-2-carboxylic acid (6S,9R,10S,11S, 13S,16R,17R)-9-chloro-6-fluoro-11-hydroxy-17-methoxycarbonyl-10,13,16-trimethyl-3-oxo-6,7,8,9,10,11,12,13,14,15,16,17-dodecahydro-3H-cyclopenta[a]phenanthren-17-yl ester] the “Crystal form found by XRPD after storage (stability)” value (from here on “Crystal form found by XRPD”) ([1]; 75% r.h. (relative humidity), open) was “A + B”, the “Crystal form found by XRPD” value ([1]; N2 + 2% water) was “A + B” and the “Crystal form found by XRPD” value ([1]; O2) was “A + B”. For the same compound, the “Conversion in the solid state on storage” value ([1]; solid state, listed as crystal form B) was “can convert at least partially in the solid state into crystal form A”, the “Conversion of crystal form in the presence of isopropanol” value ([2]; in the presence of isopropanol) was “converts to crystal form A” and the Heat of solution ([3]; listed as B) was 17.9 J/g.

With `COC(=O)[C@@]1(OC(=O)c2sccc2C)[C@H](C)CC2C3C[C@H](F)C4=CC(=O)C=C[C@]4(C)[C@@]3(Cl)[C@@H](O)C[C@@]21C` (stereo partly drawn) [Crystal forms A + B, 3-methylthiophene-2-carboxylic acid (6S,9R,10S,11S, 13S,16R,17R)-9-chloro-6-fluoro-11-hydroxy-17-methoxycarbonyl-10,13,16-trimethyl-3-oxo-6,7,8,9,10,11,12,13,14,15,16,17-dodecahydro-3H-cyclopenta[a]phenanthren-17-yl ester] the “Crystal form found by XRPD” value ([1]; N2) was “A + B” and the “Crystal form found by XRPD” value ([1]; sealed) was “A + B”.
